{"source": "paper PMC7699649", "about": "(Communications Biology, 2020)", "key": {"HEK293": {"tested_on": "HEK293", "assay_type": "cell-based, human", "conditions": "XTT, 24 h with peptide, OD475; Eagle's Minimum Essential Media, 10% FBS; average and standard error of three biological replicates", "protocol": "(§1) HeLa and HEK293 cell lines were purchased from ECACC and cultured in Eagle’s Minimum Essential Media containing glutamine, supplemented with 10% FBS and 1X non-essential amino acids. A549 and Calu-3 cell lines were purchased from ATCC. […] Cytotoxicity was measured by incubating starter cultures of cells for 24 h in a 96 well plate, gently removing the supernatant and replacing it with dilutions of peptides and controls, incubating for a further 24 h and then staining of the cells with the second-generation tetrazolium dye, XTT."}, "HeLa": {"tested_on": "HeLa", "assay_type": "cell-based", "conditions": "XTT, 24 h with peptide, OD475; Eagle's Minimum Essential Media, 10% FBS; average and standard error of three biological replicates", "protocol": "as §1"}, "human red blood cells": {"tested_on": "human red blood cells", "assay": "Haemolysis assay", "assay_type": "cell-based", "conditions": "human red blood cells in PBS, 1 h 37 °C, OD550, relative to 0.1% Triton-X-100", "method": "Haemolysis was tested by incubating titrations of AMPs in PBS with freshly collected human red blood cells for 1 h at 37 °C. Control wells were treated with 0.1% Triton-X-100 to ensure complete lysis, or PBS-only to represent no lysis. Samples were spun down to remove non-lysed cells and the OD550 of the supernatant was measured using a Clariostar plate reader. The percentage of haemolysis was calculated as % haemolysis = (AP − AB)/(AC − AB) × 100, where AP is the absorbance value for a known peptide concentration, AC is the absorbance of the 0.1% Triton-X-100 control, AB is the absorbance of the PBS control. Data presented are averages and standard error from three biological replicate experiments."}, "EMRSA-15": {"tested_on": "EMRSA-15", "assay": "Murine EMRSA-15 lung infection model: lung CFU", "assay_type": "in vivo, C57Bl6J mice", "source_text": "CFUs were quantified in lung homogenates."}, "[1]": {"assay": "Murine EMRSA-15 lung infection model: body weight", "assay_type": "in vivo, C57Bl6J mice"}, "BAL cells": {"tested_on": "BAL cells", "assay": "Murine EMRSA-15 lung infection model: BAL total and differential cell count", "assay_type": "in vivo, C57Bl6J mice", "conditions": "48 h", "method": "Using the recently developed method[65], an overnight culture of EMRSA-15 was prepared in tryptic soy broth (TSB). EMRSA-15 was cultured in TSB overnight at 37 °C, adjusted to a starting OD600 of 0.025, and grown for additional 4 h for agar beads preparation. EMRSA-15 was embedded into agar beads by mixing the overnight culture with molten tryptic soy agar, which was then spun into warmed mineral oil. The preparation was cooled and centrifuged at 2700 × g, the remaining oil was eliminated, and the beads were washed in sterile PBS. The CFU content of the beads slurry was subsequently quantified on TSA plates and the beads slurry then diluted to 2 × 10^7 CFU/ml in sterile PBS to deliver a final dose of 1 × 10^6 CFU/mouse. Animal work was performed in accordance with the Animals (Scientific Procedures) Act of 1986 (United Kingdom) and 2012 revisions with local ethical approval of King’s College London. On day 0, male C57Bl6J mice (8–10 weeks, Charles River) were anaesthetised under Isoflurane and 50 µl inoculum of EMRSA-15 embedded in agar beads (10^6 CFU/mouse) was instilled directly into the respiratory tract via oropharyngeal dosing (o.a.). Sham control mice were inoculated with sterile PBS agar beads. […] Body weight was measured daily, and animals monitored at regular intervals for signs of pain and distress. After 48 h of pulmonary infection, animals were terminally euthanized using 25% urethane via intra-peritoneal injection. CFUs were quantified in lung homogenates. Lung homogenates were then centrifuged at 14000 rpm for 30 min at 4 °C and the supernatants were stored at −80 °C for future analysis. For BAL fluid collection and analysis (total and differential cell count), a 22-gauge catheter was inserted into the trachea and BAL was recovered by instillation of 0.5 ml of sterile PBS three times and total cells counts were performed by adding Turks stain in a 1:1 ratio. BAL fluid was then centrifuged, and supernatants were stored at −20 °C. Total levels of TNFα, IL-6, KC and MCP-1 were quantified from BAL fluid collected from all animals and measured by ELISA according to the manufacturer protocol (R&D Systems UK). Concentrations of all mediators were then normalised to total protein content of BAL fluid quantified via bicinchoninic acid total protein assays performed to manufacturers protocols (Thermofisher Scientific). […] Statistical analysis was by one-way ANOVA with Dunnett’s multiple comparisons test."}, "TNFα": {"tested_on": "TNFα", "assay": "Murine EMRSA-15 lung infection model: BAL cytokine ELISA", "assay_type": "in vivo, C57Bl6J mice", "conditions": "vancomycin or D-pleurocidin-KR i.v., 48 h"}, "IL-6": {"tested_on": "IL-6", "assay": "Murine EMRSA-15 lung infection model: BAL cytokine ELISA", "assay_type": "in vivo, C57Bl6J mice", "conditions": "600 mg/kg vancomycin or D-pleurocidin-KR (also lowest dose 0.15 mg/kg) i.v., 48 h"}, "KC": {"tested_on": "KC", "assay": "Murine EMRSA-15 lung infection model: BAL cytokine ELISA", "assay_type": "in vivo, C57Bl6J mice", "conditions": "600 mg/kg vancomycin or the two higher D-pleurocidin-KR doses (15, 1.5 mg/kg) i.v., 48 h"}, "MCP-1": {"tested_on": "MCP-1", "assay": "Murine EMRSA-15 lung infection model: BAL cytokine ELISA", "assay_type": "in vivo, C57Bl6J mice", "conditions": "vancomycin or D-pleurocidin-KR i.v., 48 h"}, "[2]": {"assay": "Maximum tolerated dose (MTD) study, i.v.", "assay_type": "in vivo", "conditions": "ICR mice", "source_text": "SI Figures: Why are there 6 different Figure 3s with separate legends? Within the 4th - 6th Figure 3’s, what are the 4 different graphs for each of A, B, and C? […] Figure 16, 19 and 24 […]\nhave unreadable components due to overlap of text.\nEach panel that constitutes “Secondary structure analysis of pleurocidin peptides from MD simulations” and, as such, is the same data but analysed in different ways. For this reason, we considered it appropriate to consider these all as one figure. However, to provide further clarity we have renumbered the supplementary figures and added further detail to the legends. The DISICL analysis is presented with a separate panel for each peptide. This has been clarified in the figure legend.\nThe overlap in the metabolite annotation in Volcano plots is a challenge for those metabolites that do not change much or where there is low significance as they all cluster in the same place. Since they are below the significance threshold, we have elected to remove these labels. […]\nunethical to perform dose-ranging experiments to confirm this. Instead our experimental design was […]\nAs mentioned above however, we […]\nsystemic delivery of AMPs will never be possible due to insufficient therapeutic index. There is a marginal therapeutic index provided based on mammalian cell toxicity (up to 12-fold), but many existing in vitro studies of AMPs have shown greater selectivity. […]"}}, "note": "Values joined by “and” are separate entries in the source; they are usually repeats but may differ in a detail not shown here. Equal entries are not always repeated. Non-standard residues stand in square brackets, D forms with d. Residues, ends and D or L forms follow the SMILES beside them."}
{"smiles": "CC(C)C[C@@H](NC(=O)[C@@H](Cc1ccc(O)cc1)NC(=O)[C@@H](Cc1c[nH]cn1)NC(=O)[C@H](NC(=O)[C@@H](CC(C)C)NC(=O)[C@@H](C)NC(=O)[C@@H](C)NC(=O)[C@@H](CCCNC(=N)N)NC(=O)CNC(=O)[C@H](NC(=O)[C@@H](Cc1c[nH]cn1)NC(=O)[C@@H](CCCNC(=N)N)NC(=O)CNC(=O)[C@H](NC(=O)[C@@H](Cc1c[nH]cn1)NC(=O)[C@@H](C)NC(=O)[C@@H](C)NC(=O)[C@@H](CCCNC(=N)N)NC(=O)[C@@H](CCCNC(=N)N)NC(=O)[C@@H](Cc1ccccc1)NC(=O)[C@@H](Cc1ccccc1)NC(=O)[C@@H](CO)NC(=O)CNC(=O)[C@@H](Cc1c[nH]c2ccccc12)NC(=O)CN)C(C)C)C(C)C)[C@H](C)O)C(N)=O", "note": "[D-pleurocidin-KR] (H-G[dW]G[dS][dF][dF][dR][dR][dA][dA][dH][dV]G[dR][dH][dV]G[dR][dA][dA][dL][dT][dH][dY][dL]-NH2; N-terminus assumed)", "values": [{"measurement": "Toxicity HEK293 (EC50 / IC50)", "setting": "HEK293", "value": "(36.4 ± 4.3) µg/ml"}, {"measurement": "Toxicity HeLa (EC50 / IC50)", "setting": "HeLa", "value": "(25.3 ± 2.2) µg/ml"}, {"measurement": "haemolysis at the highest concentration tested 400 µg/ml", "setting": "human red blood cells", "value": 50, "unit": "%"}, {"measurement": "concentration at which 10% haemolysis is achieved", "setting": "human red blood cells; three biological replicates", "value": "above 64 µg/ml and ~ 75 µg/ml"}, {"measurement": "reduction in lung CFU", "setting": "EMRSA-15; cumulative 1.5 mg/kg/48 h i.v. (three doses at 4, 24, 30 h post infection)", "value": 0.9, "unit": "log10"}, {"measurement": "reduction in lung CFU", "setting": "EMRSA-15; cumulative 15 mg/kg/48 h i.v. (three doses at 4, 24, 30 h post infection)", "value": 1.1, "unit": "log10"}, {"measurement": "reduction in lung CFU", "setting": "EMRSA-15; lowest dose, cumulative 0.15 mg/kg i.v., 48 h", "value": "did not cause a significant reduction"}, {"measurement": "weight loss over the 48-h infection period", "setting": "[1]; cumulative 15 or 1.5 mg/kg/48 h D-pleurocidin-KR, 600 mg/kg vancomycin, i.v.", "value": "mitigates this weight loss"}, {"measurement": "weight loss over the 48-h infection period", "setting": "[1]; lowest dose of 0.15 mg/kg D-pleurocidin-KR i.v.", "value": "no observable effect"}, {"measurement": "neutrophil recruitment (BAL)", "setting": "BAL cells; 600 mg/kg vancomycin or D-pleurocidin-KR (also lowest dose 0.15 mg/kg) i.v.", "value": "reduced"}, {"measurement": "macrophage numbers in BAL", "setting": "BAL cells; vancomycin or D-pleurocidin-KR i.v.", "value": "No effects"}, {"measurement": "levels of TNFα in BAL", "setting": "TNFα", "value": "No effects"}, {"measurement": "IL-6 in BAL", "setting": "IL-6", "value": "reduced"}, {"measurement": "KC levels in BAL", "setting": "KC", "value": "fall to that of the uninfected group"}, {"measurement": "levels of MCP-1 in BAL", "setting": "MCP-1", "value": "No effects"}, {"measurement": "dose tolerated when administered i.v.", "setting": "[2]", "value": 15, "unit": "mg/kg/24 h"}]}
